Test system: carrageenin-induced paw edema
Assay: Anti-inflammatory activity: inhibition of carrageenin-induced paw edema in rats
Format: in vivo, rat (male, S.D. strain)
Settings: Rattus norvegicus, po, read-out: Inhibition percent of edema; for inhibition in vivo at 100 mg/kg: 100 mg/kg p.o.; for inhibition in vivo at 25 mg/kg: 25 mg/kg p.o.; for inhibition in vivo at 50 mg/kg: 50 mg/kg p.o.
Description: (1) Anti-inflammatory activity: inhibition of carrageenin-induced paw edema in rats The compound was tested for the above activity according to the method of C.A. Winter et al. [Proc. Soc. […] One hour after the test compound was orally given to the animal, 0.1 ml of 1% carrageenin solution was subcutaneously injected into the right footpad. The paw volume was measured 3 hours thereafter, and the resulting increase in the volume was calculated based on the volume before the injection of carrageenin solution. The percent inhibition was determined in comparison with the increase in the control group.

[1] = 1 h before carrageenin, paw volume 3 h after, vs control

CC(C)c1cc(Nc2cnccn2)cc(C(C)(C)C)c1O [Compound 4, 2-isopropyl-6-tert-butyl-4-pyrazinylaminophenol]
inhibition in vivo at 100 mg/kg [1]: 39%

CC(C)(C)c1cc(Nc2cncc(Cl)n2)cc(C(C)(C)C)c1O [Compound 25]
inhibition in vivo at 100 mg/kg [1]: 15%

CCOc1ccc(Nc2cc(C(C)(C)C)c(O)c(C(C)(C)C)c2)nn1 [Compound 28, 2,6-di-tert-butyl-4-[(6-ethoxy-3-pyridazinyl)amino]phenol]
inhibition in vivo at 100 mg/kg [1]: 33%

CC(C)(C)c1cc(Nc2ccc(CO)nn2)cc(C(C)(C)C)c1O [Compound 33, 2,6-di-tert-butyl-4-[(6-hydroxymethyl-3-pyridazinyl)amino]phenol]
inhibition in vivo at 100 mg/kg [1]: 46%

CC(C)c1cc(Nc2cccnn2)cc(C(C)(C)C)c1O [Compound 10]
inhibition in vivo at 25 mg/kg [1]: 35%

Cc1nnc(Nc2cc(C(C)(C)C)c(O)c(C(C)(C)C)c2)s1 [Compound 58, 2,6-di-tert-butyl-4-[(5-methyl-1,3,4-thiadiazol-2-yl)amino]pheonl]
inhibition in vivo at 100 mg/kg [1]: 30%

Cc1sccc1Nc1cc(C(C)(C)C)c(O)c(C(C)(C)C)c1 [Compound 61, 2,6-di-tert-butyl-4-[(2-methyl-3-thienyl)amino]phenol]
inhibition in vivo at 50 mg/kg [1]: 25%

CC(C)(C)c1cc(Nc2ncco2)cc(C(C)(C)C)c1O [Compound 49, 2,6-di-tert-butyl-4-[(2-oxazolyl)amino]phenol]
inhibition in vivo at 100 mg/kg [1]: 41%

Cc1ccnc(Nc2cc(C(C)(C)C)c(O)c(C(C)(C)C)c2)n1 [Compound 18, 2,6-di-tert-butyl-4-[(4-methyl-2-pyrimidinyl)amino]phenol]
inhibition in vivo at 50 mg/kg [1]: 36%

CC(C)(C)c1cc(Nc2ncc[nH]2)cc(C(C)(C)C)c1O [Compound 48]
inhibition in vivo at 25 mg/kg [1]: 63%

Cc1cc(Nc2cc(C(C)(C)C)c(O)c(C(C)(C)C)c2)no1 [Compound 50]
inhibition in vivo at 50 mg/kg [1]: 12%

Cc1ccc(Nc2cc(C(C)(C)C)c(O)c(C(C)(C)C)c2)nn1 [Compound 17, 2,6-di-tert-butyl-4-[(6-methyl-3-pyridazinyl)amino]phenol]
inhibition in vivo at 25 mg/kg [1]: 36%

CC(C)(C)c1cc(Nc2cncc[n+]2[O-])cc(C(C)(C)C)c1O [Compound 64, 2-N-(3,5-di-tert-butyl-4-hydroxyphenyl)aminopyrazine-1-oxide]
inhibition in vivo at 25 mg/kg [1]: 31%

CC(C)(C)c1cc(Nc2cncnc2)cc(C(C)(C)C)c1O [Compound 15]
inhibition in vivo at 100 mg/kg [1]: 16%

CC(C)(C)c1cc(Nc2cc[nH]n2)cc(C(C)(C)C)c1O [Compound 34, 2,6-di-tert-butyl-4-(3-pyrazolylamino)phenol]
inhibition in vivo at 100 mg/kg [1]: 65%

CC(C)(C)c1cc(Nc2ccncn2)cc(C(C)(C)C)c1O [Compound 14, 2,6-di-tert-butyl-4-[(4-pyrimidinyl)amino]phenol]
inhibition in vivo at 50 mg/kg [1]: 30%

Cn1nccc1Nc1cc(C(C)(C)C)c(O)c(C(C)(C)C)c1 [Compound 39, 2,6-di-tert-butyl-4-[(2-methyl-3-pyrazolyl)amino]phenol]
inhibition in vivo at 100 mg/kg [1]: 46%

CC(C)(C)c1cc(Nc2cccnn2)cc(C(C)(C)C)c1O [Compound 11, 2,6-di-tert-butyl-4-[(3-pyridazinyl)amino]phenol]
inhibition in vivo at 100 mg/kg [1]: 62%

CC(C)(C)c1cc(Nc2cncnc2N)cc(C(C)(C)C)c1O [Compound 22, 2,6-di-tert-butyl-4-[(4-amino-5-pyrimidinyl)amino]phenol]
inhibition in vivo at 100 mg/kg [1]: 32%

CC(C)(C)c1cc(Nn2cnnc2)cc(C(C)(C)C)c1O [Compound 55, 2,6-di-tert-butyl-4-[(1,2,4-triazol-4-yl)amino]phenol]
inhibition in vivo at 100 mg/kg [1]: 23%

CC(C)(C)c1cc(Nc2cnccn2)cc(C(C)(C)C)c1O [Compound 1, 2,6-di-tert-butyl-4-pyrazinylaminophenol]
inhibition in vivo at 50 mg/kg [1]: 37%

CC(C)(C)c1cc(Nc2cc(Cl)nnc2Cl)cc(C(C)(C)C)c1O [Compound 27, 2,6-di-tert-butyl-4-[(3,6-dichloro-4-pyridazinyl)amino]pheonl]
inhibition in vivo at 100 mg/kg [1]: 33%

CC(C)(C)c1cc(Nc2nccnn2)cc(C(C)(C)C)c1O [Compound 59, 2,6-di-tert-butyl-4-[(1,2,4-triazin-3-yl)amino]phenol]
inhibition in vivo at 50 mg/kg [1]: 37%

CC(C)(C)c1cc(Nc2nc(-c3ccccc3)ns2)cc(C(C)(C)C)c1O [Compound 56, 2,6-di-tert-butyl-4-[(3-phenyl-1,2,4-thiadiazol-5-yl)amino]phenol]
inhibition in vivo at 100 mg/kg [1]: 13%

COc1ccc(Nc2cc(C(C)(C)C)c(O)c(C(C)(C)C)c2)nn1 [Compound 24, 2,6-di-tert-butyl-4-[(6-methoxy-3-pyridazinyl)amino]phenol]
inhibition in vivo at 25 mg/kg [1]: 31%

CC(C)(C)c1cc(Nc2ccnnc2)cc(C(C)(C)C)c1O [Compound 12, 2,6-di-tert-butyl-4-[(4-pyridazinyl)amino]phenol]
inhibition in vivo at 25 mg/kg [1]: 29%

CC(C)(C)c1cc(Nc2ncccn2)cc(C(C)(C)C)c1O [Compound 13, 2,6-di-tert-butyl-4-[(2-pyrimidinyl)amino]phenol]
inhibition in vivo at 10 mg/kg (10 mg/kg p.o., 1 h before carrageenin, paw volume 3 h after, vs control): 41%

CC(C)(C)c1cc(Nc2nnc[nH]2)cc(C(C)(C)C)c1O [Compound 54]
inhibition in vivo at 100 mg/kg [1]: 20%

CC(C)(C)c1cc(Nc2c[nH]nn2)cc(C(C)(C)C)c1O [Compound 51, 2,6-di-tert-butyl-4-[(1,2,3-triazol-4-yl)amino]phenol]
inhibition in vivo at 100 mg/kg [1]: 42%

Cc1cnc(Nc2cc(C(C)(C)C)c(O)c(C(C)(C)C)c2)cn1 [Compound 16]
inhibition in vivo at 100 mg/kg [1]: 10%

COc1ccc2c(c1)c(CC(=O)O)c(C)n2C(=O)c1ccc(Cl)cc1 [Indomethacin, reference compound]
inhibition in vivo at 5 mg/kg (3 h): 36%

CC(C)(C)c1cc(Nc2ccc(Cl)nn2)cc(C(C)(C)C)c1O [Compound 26, 2,6-di-tert-butyl-4-[(6-chloro-3-pyridazinyl)amino]phenol]
inhibition in vivo at 100 mg/kg [1]: 27%

Source: patent publication US4868183A, “N-pyrazinyl substituted P-aminophenols” (Otsuka Pharmaceutical Factory, Inc., priority 1986, dated 1989)
